Measured values taken from ChEMBL document CHEMBL5316333, “Potent Long-Acting Inhibitors Targeting the HIV-1 Capsid Based on a Versatile Quinazolin-4-one Scaffold” (J Med Chem, 2023).
pEC50: −log10 of the molar value.

Experiments:
[1] = tested on: Human immunodeficiency virus 1; experiment: Antiviral activity against HIV-1 NLRep-Rluc infected in human MT2 cells assessed as inhibition of viral growth incubated for 96 hrs by renilla luciferase assay; assay type: functional, organism-based
[2] = Clearance in Sprague-Dawley rat at 1 mg/kg, iv and measured upto 96 hrs by LC-MS/MS analysis; assay type: ADME, organism-based; conditions: in vivo
MT2 = experiment: Cytotoxicity against human MT2 cells assessed as reduction in cell viability incubated for 4 days by XTT assay; assay type: toxicity, cell-based; conditions: mt2, 96 h, 96 h, time 4 day
[3] = Human immunodeficiency virus 1, NLRep-Rluc, MT2, 96 h

Row | SMILES | pEC50 [1, 3] | pEC50 ([1]; mt2) | clearance [2] | CC50 (MT2)
1 | Cn1nc(NS(C)(=O)=O)c2c(Cl)ccc(-n3c([C@H](Cc4cc(F)cc(F)c4)NC(=O)Cn4nc(C(F)F)c5c4C(F)(F)[C@@H]4C[C@H]54)nc4cc(N5[C@@H]6CC[C@H]5COC6)ccc4c3=O)c21 | 10.24 |  |  | 
2 | Cn1nc(NS(C)(=O)=O)c2c(Cl)ccc(-n3c([C@H](Cc4cc(F)cc(F)c4)NC(=O)Cn4nc(C(F)F)c5c4C(F)(F)[C@@H]4C[C@H]54)nc4cc(N5CCCOCC5)ccc4c3=O)c21 | 9.89 |  |  | 
3 | COc1ccc2nc([C@H](Cc3cc(F)cc(F)c3)NC(=O)Cn3nc(C(F)F)c4c3C(F)(F)[C@@H]3C[C@H]43)n(-c3ccc(Cl)c4c(NS(C)(=O)=O)nn(C)c34)c(=O)c2c1 (stereo in doubt; 13c) |  | 7.42 |  | 
4 | Cn1nc(NS(C)(=O)=O)c2c(Cl)ccc(-n3c([C@H](Cc4cc(F)cc(F)c4)NC(=O)Cn4nc(C(F)F)c5c4C(F)(F)[C@@H]4C[C@H]54)nc4cc(N5CCOC(C)(C)C5)ccc4c3=O)c21 | 10.30 |  | 9.6 mL/min/kg | 
5 | Cn1nc(NS(C)(=O)=O)c2c(Cl)ccc(-n3c([C@H](Cc4cc(F)cc(F)c4)NC(=O)Cn4nc(C(F)F)c5c4C(F)(F)[C@@H]4C[C@H]54)nc4cc(S(C)(=O)=O)ccc4c3=O)c21 | 9.82 |  | 78 mL/min/kg | 
6 | COc1cc(OC)c2c(=O)n(-c3ccc(Cl)c4c(NS(C)(=O)=O)nn(C)c34)c([C@H](Cc3cc(F)cc(F)c3)NC(=O)Cn3nc(C(F)F)c4c3C(F)(F)[C@@H]3C[C@H]43)nc2c1 | 10.19 |  | 65 mL/min/kg | 
7 | CCN(CC)c1ccc2c(=O)n(-c3ccc(Cl)c4c(NS(C)(=O)=O)nn(C)c34)c([C@H](Cc3cc(F)cc(F)c3)NC(=O)Cn3nc(C(F)F)c4c3C(F)(F)[C@@H]3C[C@H]43)nc2c1 | 9.70 |  |  | 
8 | CO[C@@H]1CCN(c2ccc3c(=O)n(-c4ccc(Cl)c5c(NS(C)(=O)=O)nn(C)c45)c([C@H](Cc4cc(F)cc(F)c4)NC(=O)Cn4nc(C(F)F)c5c4C(F)(F)[C@@H]4C[C@H]54)nc3c2)C1 | 10.24 |  |  | 
9 | Cn1nc(NS(C)(=O)=O)c2c(Cl)ccc(-n3c([C@H](Cc4cc(F)cc(F)c4)NC(=O)Cn4nc(C(F)F)c5c4C(F)(F)[C@@H]4C[C@H]54)nc4cc(N5CCC5)ccc4c3=O)c21 | 9.96 |  |  | 
10 | COc1cccc2nc([C@H](Cc3cc(F)cc(F)c3)NC(=O)Cn3nc(C(F)F)c4c3C(F)(F)[C@@H]3C[C@H]43)n(-c3ccc(Cl)c4c(NS(C)(=O)=O)nn(C)c34)c(=O)c12 (stereo in doubt; 13d) |  | 6.89 |  | > 1000 nM
11 | Cn1nc(NS(C)(=O)=O)c2c(Cl)ccc(-n3c([C@H](Cc4cc(F)cc(F)c4)NC(=O)Cn4nc(C(F)F)c5c4C(F)(F)[C@@H]4C[C@H]54)nc4cccc(F)c4c3=O)c21 | 9.89 |  |  | 
12 | Cn1nc(NS(C)(=O)=O)c2c(Cl)ccc(-n3c([C@H](Cc4cc(F)cc(F)c4)NC(=O)Cn4nc(C(F)F)c5c4C(F)(F)[C@@H]4C[C@H]54)nc4cc(N5CCS(=O)(=O)CC5)ccc4c3=O)c21 | 9.33 |  |  | 
13 | Cn1nc(NS(C)(=O)=O)c2c(Cl)ccc(-n3c([C@H](Cc4cc(F)cc(F)c4)NC(=O)Cn4nc(C(F)F)c5c4C(F)(F)[C@@H]4C[C@H]54)nc4cc(C#N)ccc4c3=O)c21 | 10.77 |  | 82 mL/min/kg | 
14 | Cn1nc(NS(C)(=O)=O)c2c(Cl)ccc(-n3c([C@H](Cc4cc(F)cc(F)c4)NC(=O)Cn4nc(C(F)F)c5c4C(F)(F)[C@@H]4C[C@H]54)nc4cc(Br)ccc4c3=O)c21 | 10.28 |  |  | 
15 | Cn1nc(NS(C)(=O)=O)c2c(Cl)ccc(-n3c([C@H](Cc4cc(F)cc(F)c4)NC(=O)Cn4nc(C(F)F)c5c4C(F)(F)[C@@H]4C[C@H]54)nc4cc(C(C)(C)C)ccc4c3=O)c21 | 9.89 |  | 19 mL/min/kg | 
16 | Cn1nc(NS(C)(=O)=O)c2c(Cl)ccc(-n3c([C@H](Cc4cc(F)cc(F)c4)NC(=O)Cn4nc(C(F)F)c5c4C(F)(F)[C@@H]4C[C@H]54)nc4cc(N5CCCC5)ccc4c3=O)c21 | 9.64 |  |  | 
17 | Cn1nc(NS(C)(=O)=O)c2c(Cl)ccc(-n3c([C@H](Cc4cc(F)cc(F)c4)NC(=O)Cn4nc(C(F)F)c5c4C(F)(F)[C@@H]4C[C@H]54)nc4cc(N5C6COCC5COC6)ccc4c3=O)c21 | 9.62 |  |  | 
18 | Cn1nc(NS(C)(=O)=O)c2c(Cl)ccc(-n3c([C@H](Cc4cc(F)cc(F)c4)NC(=O)Cn4nc(C(F)F)c5c4C(F)(F)[C@@H]4C[C@H]54)nc4cc(N5CCOCC5=O)ccc4c3=O)c21 | 9.96 |  |  | 
19 | COc1cccc2c(=O)n(-c3ccc(Cl)c4c(NS(C)(=O)=O)nn(C)c34)c([C@H](Cc3cc(F)cc(F)c3)NC(=O)Cn3nc(C(F)F)c4c3C(F)(F)[C@@H]3C[C@H]43)nc12 | 10.02 |  |  | 

Row | SMILES | pEC50 [1, 3] | pEC50 ([1]; mt2) | clearance [2] | CC50 (MT2)
20 | Cn1nc(NS(C)(=O)=O)c2c(Cl)ccc(-n3c([C@H](Cc4cc(F)cc(F)c4)NC(=O)Cn4nc(C(F)F)c5c4C(F)(F)[C@@H]4C[C@H]54)nc4cc(C5CC5)ccc4c3=O)c21 | 9.85 |  | 4.3 mL/min/kg | 
21 | COc1ccc2c(=O)n(-c3ccc(Cl)c4c(NS(C)(=O)=O)nn(C)c34)c([C@H](Cc3cc(F)cc(F)c3)NC(=O)Cn3nc(C(F)F)c4c3C(F)(F)[C@@H]3C[C@H]43)nc2c1F | 9.89 |  | 11 mL/min/kg | 
22 | Cn1nc(NS(C)(=O)=O)c2c(Cl)ccc(-n3c([C@H](Cc4cc(F)cc(F)c4)NC(=O)Cn4nc(C(F)F)c5c4C(F)(F)[C@@H]4C[C@H]54)nc4cc(C(C)(C)O)ccc4c3=O)c21 | 9.82 |  | 26 mL/min/kg | 
23 | Cn1nc(NS(C)(=O)=O)c2c(Cl)ccc(-n3c([C@H](Cc4cc(F)cc(F)c4)NC(=O)Cn4nc(C(F)F)c5c4C(F)(F)[C@@H]4C[C@H]54)nc4cc(N5CCOCC5)ccc4c3=O)c21 | 10.43 |  | 16 mL/min/kg | 
24 | Cn1nc(NS(C)(=O)=O)c2c(Cl)ccc(-n3c([C@H](Cc4cc(F)cc(F)c4)NC(=O)Cn4nc(C(F)F)c5c4C(F)(F)[C@@H]4C[C@H]54)nc4cc(N5CC6(COC6)C5)ccc4c3=O)c21 | 10.19 |  | 18 mL/min/kg | 
25 | Cn1nc(NS(C)(=O)=O)c2c(Cl)ccc(-n3c([C@H](Cc4cc(F)cc(F)c4)NC(=O)Cn4nc(C(F)F)c5c4C(F)(F)[C@@H]4C[C@H]54)nc4cc(N5CC(C)(C)OC(C)(C)C5)ccc4c3=O)c21 | 9.92 |  |  | 
26 | C[C@@H]1CN(c2ccc3c(=O)n(-c4ccc(Cl)c5c(NS(C)(=O)=O)nn(C)c45)c([C@H](Cc4cc(F)cc(F)c4)NC(=O)Cn4nc(C(F)F)c5c4C(F)(F)[C@@H]4C[C@H]54)nc3c2)C[C@H](C)N1C | 10.04 |  |  | 
27 | Cn1nc(NS(C)(=O)=O)c2c(Cl)ccc(-n3c([C@H](Cc4cc(F)cc(F)c4)NC(=O)Cn4nc(C(F)F)c5c4C(F)(F)[C@@H]4C[C@H]54)nc4cc(Cl)ccc4c3=O)c21 | 10.24 |  |  | 
28 | CN1CCN(c2ccc3c(=O)n(-c4ccc(Cl)c5c(NS(C)(=O)=O)nn(C)c45)c([C@H](Cc4cc(F)cc(F)c4)NC(=O)Cn4nc(C(F)F)c5c4C(F)(F)[C@@H]4C[C@H]54)nc3c2)CC1 | 9.82 |  | 60 mL/min/kg | 
29 | COC1CCN(c2ccc3c(=O)n(-c4ccc(Cl)c5c(NS(C)(=O)=O)nn(C)c45)c([C@H](Cc4cc(F)cc(F)c4)NC(=O)Cn4nc(C(F)F)c5c4C(F)(F)[C@@H]4C[C@H]54)nc3c2)CC1 | 9.92 |  |  | 
30 | Cn1nc(NS(C)(=O)=O)c2c(Cl)ccc(-n3c([C@H](Cc4cc(F)cc(F)c4)NC(=O)Cn4nc(C(F)F)c5c4C(F)(F)[C@@H]4C[C@H]54)nc4ccc(F)cc4c3=O)c21 | 10.35 |  | 29 mL/min/kg | 
31 | Cn1nc(NS(C)(=O)=O)c2c(Cl)ccc(-n3c([C@H](Cc4cc(F)cc(F)c4)NC(=O)Cn4nc(C(F)F)c5c4C(F)(F)[C@@H]4C[C@H]54)nc4cc(F)ccc4c3=O)c21 | 10.39 |  | 40 mL/min/kg | 
32 | COc1ccc2c(=O)n(-c3ccc(Cl)c4c(NS(C)(=O)=O)nn(C)c34)c([C@H](Cc3cc(F)cc(F)c3)NC(=O)Cn3nc(C(F)F)c4c3C(F)(F)[C@@H]3C[C@H]43)nc2c1 (stereo in doubt; 13b) |  | 8.01 |  | > 1000 nM
33 | Cn1nc(NS(C)(=O)=O)c2c(Cl)ccc(-n3c([C@H](Cc4cc(F)cc(F)c4)NC(=O)Cn4nc(C(F)F)c5c4C(F)(F)[C@@H]4C[C@H]54)nc4cc(N5CCCCC5)ccc4c3=O)c21 | 9.57 |  | 11 mL/min/kg | 
34 | Cn1nc(NS(C)(=O)=O)c2c(Cl)ccc(-n3c([C@H](Cc4cc(F)cc(F)c4)NC(=O)Cn4nc(C(F)F)c5c4C(F)(F)[C@@H]4C[C@H]54)nc4cc(N5CCO[C@@H](C(F)(F)F)C5)ccc4c3=O)c21 | 10.09 |  |  | 
35 | Cn1nc(NS(C)(=O)=O)c2c(Cl)ccc(-n3c([C@H](Cc4cc(F)cc(F)c4)NC(=O)Cn4nc(C(F)F)c5c4C(F)(F)[C@@H]4C[C@H]54)nc4ccccc4c3=O)c21 (stereo in doubt; 13a) |  | 7.09 |  | > 1000 nM
36 | Cn1nc(NS(C)(=O)=O)c2c(Cl)ccc(-n3c([C@H](Cc4cc(F)cc(F)c4)NC(=O)Cn4nc(C(F)F)c5c4C(F)(F)[C@@H]4C[C@H]54)nc4cc(C(C)(F)F)ccc4c3=O)c21 | 10.11 |  | 2.8 mL/min/kg | 
37 | Cn1nc(NS(C)(=O)=O)c2c(Cl)ccc(-n3c([C@H](Cc4cc(F)cc(F)c4)NC(=O)Cn4nc(C(F)F)c5c4C(F)(F)[C@@H]4C[C@H]54)nc4cc(N5CCC6(CC5)COC6)ccc4c3=O)c21 | 9.89 |  |  | 
38 | Cn1nc(NS(C)(=O)=O)c2c(Cl)ccc(-n3c([C@H](Cc4cc(F)cc(F)c4)NC(=O)Cn4nc(C(F)F)c5c4C(F)(F)[C@@H]4C[C@H]54)nc4cc(N5C[C@H]6CC[C@@H](C5)O6)ccc4c3=O)c21 | 10.19 |  |  | 
